Where “and” joins values, the source holds several entries; their conditions need not be identical. Identical values can stand only once.
Columns and labels:
[1] = target: T1, native NS5BΔ21 (Hepatitis C virus genotype 1b, UniProt P26662); test: 3D-Screen-NS5B platform, luciferase reporter, Hela cells, native NS5BΔ21; format: cell-based, HCV genotype 1b; settings: for inhibition of the luciferase signal (in words): native NS5B platform, Hela cells; for IC50: native NS5BΔ21, 3D-sensor N21C272, 24 hours, read-out: IC50 (luciferase inhibition)
T1 construct: expressed in transfected cells; host or cells: Hela cells, plasmid pVVS478
Protocol: (§1) Transfections were performed for 2 hours in 100 mm dishes in 2 to 4 million cells with 5 to 20 ug of total DNA complexed to jetPEI (PolyPLus transfection, Illkirch, France) with a N/P ratio of 8 The optimal ratio between the plasmids encoding for the luciferase reporter, the target and the selected 3Dsensor was: 3 ug/1 ug/0.5 ug. Cells were dissociated and 25000 cells per well were seeded in 96 well culture treated plates (BD Biosciences, Erembodegem, Belgium).
Compound library's plates were thawed at room temperature. Drugs were handled by a Genesis workstation (Tecan, Lyon, France) and added to the cells at a 5 uM (in 0.5% DMSO) final concentration. Screening was performed by runs of twenty plates. Hits were identified by measurement of the luciferase activity.
(§2) Cell culture supernatant was discarded and 100 ul of Lysis buffer were added to each well. Following […] of vigorous shaking, the lysate was transferred to white opaque 96 well-plates and 100 ul of Luciferin buffer were added. Chemi-luminescence measurement was performed immediately using a Microlumat LB96 luminometer (Berthold, Thoiry, France) with 1 or 10 sec integration time.
Selected hits were synthesized and tested at concentrations varying between 0.01 uM and 100 uM final concentration so as to determine their IC50 on 3 independent experiments.
3D-sensors confirmed in yeast were further investigated in human cells. Among the reasons of choosing Hela cells figured their wide use, easiness of manipulation and capacity of replicating subgenomic HCV replicons (Zhu et al., 2003; Kato et al., 2005).
To validate whether drug's action on our system was stokiometric or not, Hela cells were transiently transfected with three expression plasmids encoding the reporter gene luciferase, the target protein and the conformation sensitive peptide N21C272. After incubation with increasing amounts of reference drugs cVVS-023476 or cVVS-023477, luciferase expression was measured.

[2] = target: T2, native NS4A-NS3 protease (Hepatitis C virus genotype 1b, UniProt P26662, I1158V/V1140I); test: 3D-Screen NS4A-NS3 protease platform, luciferase reporter, Hela cells, native; format: cell-based, HCV genotype 1b; settings: native NS4A-NS3 protease platform, Hela cells
T2 construct: the NS3 protease (residues 3-181); expressed in transfected cells; host or cells: Hela cells
Protocol: (§5) Cell culture supernatant was discarded and 100 ul of Lysis buffer were added to each well. Following 10 nm of vigorous shaking, the lysate was transferred to white opaque 96 well-plates and 100 ul of Luciferin buffer were added. Chemi-luminescence measurement was performed immediately using a Microlumat LB96 luminometer (Berthold, Thoiry, France) with 1 or 10 sec integration time.
3D-sensors confirmed in yeast were further investigated in Hela cells.

[3] = system: NS5B from genotype 1a or 1b; test: Genotype profiling with the 3D-Screen platform, 3D-sensor N21I4; format: cell-based, HCV genotypes 1a and 1b; settings: Huh-7 cells, genotype 1a versus 1b, increasing amounts
Excerpt: Percentages of luciferase inhibition in the presence of the Indol Acetamid NS5B specific ligand cVVS-023476 were represented for N21 I4 peptide targeting NS5B from genotype 1a and 1b.
HCV variants are classified into six genotypes (from 1 to 6) associated with a lower case letter to indicate the subtype (Le Guillou-Guillemette et al., 2007). Since sensitivity to drugs could vary from one HCV genotype to the other (Manns et al., 2007), the investors tested whether the 3D-Screen platform could be able to discriminate such differences which is highly important for preclinical profiling of drug candidates. The inventors thus verified that the 3D-Sensor N21I4 did interact with the polymerase NS5B from genotypes 1a and 1b in Hela and Huh7 cells in an equivalent way.
Huh-7 cells were transiently transfected with three expression plasmids encoding the reporter gene luciferase, the target NS5B from genotype 1a or 1b and the conformation sensitive peptide N21I4. After incubation with increasing amounts of cVVS-023476, luciferase expression was measured.

[4] = target: native NS4A-NS3 full length protein (Hepatitis C virus genotype 1b, UniProt P26662); test: 3D-Screen NS4A-NS3 full length platform, luciferase reporter, Hela cells, native; format: cell-based, HCV genotype 1b; parameters: the GSGS linker and the NS3 protease (residues 3-631); expressed in transfected cells; settings: native NS4A-NS3 full length platform, Hela cells
Protocol: as §5

[5] = system: NS5BΔ21 Indol sensitive mutants; format: cell-based, HCV genotype 1b
Protocol: (§3) Percentages of reporter's inhibition were represented for cells incubated with a specific NS5B inhibitors at increasing concentrations for 24 hours.
as §1, §2
(§4) After incubation for 24 hours with increasing concentrations of cVVS023477 (a compound belonging to the Benzothiadiazin family) or cVVS-023476 (a compound belonging to the Indol N Acetamid family), luciferase expression was measured.

[6] = target: T3, NS5BΔ21 M414T mutant (Hepatitis C virus genotype 1b, UniProt P26662, M2833T); test: 3D-Screen-NS5B mutant profiling, Hela cells, M414T; format: cell-based, HCV genotype 1b; settings: increasing concentrations, 24 hours
T3 construct: expressed in transfected cells; host or cells: Hela cells, plasmid pVVS516
Protocol: as §3, §1, §2, §4

[7] = system: Hela cells; test: Cytotoxicity assay (XTT) on transfected cells; format: cell-based, human; settings: 100 μM
Protocol: Viability measurements were performed on cells transfected and seeded in 96 well plates as described above and incubated with drugs for 24 hours. 0.15 mg/ml of XTT solution (Roche Diagnostics, Meylan, France) were added to each well and the plates incubated for 1 hour at 37° C. The optical density of each well's cell culture supernatant was analysed using a spectrophotometer (at 450 nm with deduction of background signal at 690 nm).

[8] = system: ER; test: Yeast two-hybrid spot test, control clone ER + 3D-sensor No 30-2; format: cell-based
Excerpt: (a) Isolation of peptides interacting with the NS5BΔ21 in the yeast two-hybrid-system. Yeast cells carrying the bait (NS5BΔ21-LexA) were transformed with the prey represented by a library of random peptides (in frame with the viral VP16 activation domain). Colonies growing on selective medium and staining blue allowed the isolation of individual peptides that would specifically interact with the polymerase. (b) Isolation of conformation sensitive peptides. The interacting peptides were then tested in presence of ligands known to induce conformational changes in the bait NS5B. The “3D-sensors” were thus identified as the ones whose binding to the target polymerase was prevented by known anti-NS5B. The corresponding colonies didn't show any expression of the selection or reporter gene. (c) Characterization of NS5BΔ21 “3D-sensors” in a spot test. Here were represented 2 selected yeast colonies: one carrying the ER and its specific peptide called No 30-2 isolated previously and used as a control, the other carrying the NS5BΔ21 and its specific peptide called N21C272. Both clones were spotted on selective medium lacking histidine, leucine and tryptophane, supplemented or not with polymerase ligands and overlayed with an X-Gal staining The NS5BΔ21+N21C272 clone grew on selective medium in the absence of any NS5B ligand and stained positive for LacZ. […]

[9] = target: T4, NS5BΔ21 S368A mutant (Hepatitis C virus genotype 1b, UniProt P26662, A2754S/A2757V/K2950R/L2476M/R2673K/S2787A/V2681I); test: 3D-Screen-NS5B mutant profiling, Hela cells, S368A; format: cell-based, HCV genotype 1b; settings: increasing concentrations, 24 hours
T4 construct: expressed in transfected cells; host or cells: Hela cells, plasmid pVVS799
Protocol: as §3, §1, §2, §4

[10] = target: T5, NS5BΔ21 (Hepatitis C virus genotype 1b, UniProt P26662); format: cell-based, HCV genotype 1b; settings: selective medium lacking histidine, leucine and tryptophane, supplemented with ligand, X-Gal overlay
T5 construct: lexA/truncated HCV polymerase lacking the C-terminal 21 amino-acids fusion protein as a bait; expressed in transfected cells; host or cells: Saccharomyces cerevisiae L40, plasmid pVVS468
Protocol: Yeast cells carrying the bait (NS5BΔ21-LexA) were transformed with the prey represented by a library of random peptides (in frame with the viral VP16 activation domain). […] The interacting peptides were then tested in presence of ligands known to induce conformational changes in the bait NS5B.
The naïve yeast was transformed with the pVVS468 (NS5BΔ21 fused to LexA) according to the Lithium Acetate transformation protocol (Schiestl et al, 1989). […] Resulting double transformants were spread on SD Agar medium lacking Tryptophan and Leucine, and incubated for 48 hours at 30° C. Colonies were then scraped and mixed. 1/500th of the suspension obtained was plated on SD Agar medium lacking Tryptophan, Leucine and Histidine to identify HIS3 reporter's activation. After 3 to 5 days of growth, an X-Gal overlay was performed to identify LacZ activation. An X-Gal solution was mixed with an equal volume of 1% agarose cooled to 50° C. then poured slowly over yeast colonies on the surface of agar plates. The individual clones that stained blue were picked up to be grown overnight in deep wells in order to be further analyzed.
Yeast colonies containing a peptide interacting with the bait were grown overnight in 96-well deepwells in trp-leu-liquid medium. They were then spotted using a plugger either on trp-leu-his-or trp-leu-solid medium supplemented with different concentrations of specific or non specific drugs or an equivalent amount of solvent (DMSO). […] Result was confirmed at least 3 times.
Yeast two-hybrid experiments were carried in the L40 strain (ATCC, Molsheim, France) transformed with a lexA/truncated HCV polymerase lacking the C-terminal 21 amino-acids fusion protein as a bait and the VVS001 peptide library as a prey. […] Conformation sensitive peptides or “3D-sensors” were then identified by addition to the selected individual yeast colonies of cVVS-023477 or cVVS-023476, two anti-NS5B drugs known to induce conformational changes in the target polymerase (FIG. 1b).

[11] = target: T6, NS5BΔ21 C316Y mutant (Hepatitis C virus genotype 1b, UniProt P26662, N2735Y); test: 3D-Screen-NS5B mutant profiling, Hela cells, C316Y; format: cell-based, HCV genotype 1b; settings: increasing concentrations, 24 hours
T6 construct: truncated HCV polymerase lacking the C-terminal 21 amino-acids; expressed in transfected cells; host or cells: Hela cells
Protocol: as §3, §1, §2, §4

[12] = listed as benzothiadiazidic compound

Row | Molecule | inhibition at 1 µM ([1]; HeLa, 1 uM final concentration, 24 hours, 3D-sensor N21C272, versus DMSO) [%] | inhibition at 10 µM ([1]; HeLa, 10 uM final concentration, 24 hours, 3D-sensor N21C272, versus DMSO) [%] | inhibition of the luciferase signal (in words) [1] | IC50 [1] | reporter inhibition (in words) [2] | sensitivity of NS5B from two different genotypes to the drug [3] | reporter inhibition (in words) [4] | IC50 [5] [nM] | reporter inhibition (in words) [6] | reporter inhibition (in words) [6, 12] | luciferase inhibition ([1]; 1 uM final concentration, 24 hours, 3D-sensor N21C272, versus DMSO) [%] | luciferase inhibition ([1]; 10 uM final concentration, 24 hours, 3D-sensor N21C272, versus DMSO) | toxicity (in words) [7] | sensitivity of the control clone (ER + 3D sensor No 30.2 interaction) to ligand [8] | reporter inhibition (in words) [9] | growth on selective medium and LacZ staining of the NS5BΔ21+N21C272 yeast clone [10] | reporter inhibition (in words) [11] | reporter inhibition (in words) [11, 12]
1 | CCN(CC)C1CCN(C(=O)Cn2c(-c3ccc(Cl)cc3)c(C3CCCCC3)c3ccc(C(=O)O)cc32)CC1 [cVVS-023476, 1-{[6-Carboxy-2-(4-chlorophenyl)-3-cyclohexyl-1H-indol-1-yl-]acetyl}-N,N-diethylpiperidin-4-aminium Chloride] | 67 | 82.6 | strong inhibition | 300 nM and 200 to 2000 nM | only on the NS5B platform | slightly different sensitivity | only on the NS5B platform | 200 to 2000 | – | – | – | – | – | – | – | – | – | –
2 | N-1-cyclobutyl-4-hydroxyquinolon-3-yl-benzothiadiazin [cVVS-023477] | – | – | strongly reduced | 3200 nM | – | – | – | – | the 50% signal inhibition was not reached | didn't show any noticeable reporter inhibition | 51 | 90% and 83.2%+/−7.5 | not toxic | not affected | didn't show any noticeable reporter inhibition | didn't show any growth | the 50% signal inhibition was not reached | didn't show any noticeable reporter inhibition
